# Laboratory results published in PMC3121873, “Insertion of an Esterase Gene into a Specific Locust Pathogen (Metarhizium acridum) Enables It to Infect Caterpillars” (PLoS Pathogens, 2011).
# Molecular target: T1, MEST1 (Metarhizium robertsii, UniProt E9ETD4)
# T1 construct: gene MAA_03283; full-length cDNA (395 aa, 42244 Da, no signal peptide) in pET28a, His6-tagged, 47 kDa band; E. coli Rosetta (DE3) crude extract, not purified
# Assay: spectrophotometric p-nitrophenol release
# Format: biochemical
# Details: 50 mM potassium phosphate pH 8, 37 °C; crude E. coli extract versus empty-vector extract
# T1 sequence (E9ETD4 entry or part of it): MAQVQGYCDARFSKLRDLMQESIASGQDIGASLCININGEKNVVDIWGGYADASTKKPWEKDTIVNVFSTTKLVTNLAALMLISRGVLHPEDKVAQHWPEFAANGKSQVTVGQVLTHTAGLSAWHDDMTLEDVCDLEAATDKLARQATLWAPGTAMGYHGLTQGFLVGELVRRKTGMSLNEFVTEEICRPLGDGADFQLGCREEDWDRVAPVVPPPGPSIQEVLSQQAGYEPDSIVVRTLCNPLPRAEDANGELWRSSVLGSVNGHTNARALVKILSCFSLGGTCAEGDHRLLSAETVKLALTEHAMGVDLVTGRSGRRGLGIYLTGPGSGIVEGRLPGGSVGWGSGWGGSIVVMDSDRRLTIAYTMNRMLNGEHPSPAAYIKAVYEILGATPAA
row,SMILES,spectrophotometric p-nitrophenol release
1,CCC(=O)Oc1ccc([N+](=O)[O-])cc1 [p-NP propionate],"highest activity against p-NP propionate (C3), p-NP butyrate (C4) and p-NP caproate (C6)"
2,CCCC(=O)Oc1ccc([N+](=O)[O-])cc1 [p-NP butyrate],"highest activity against p-NP propionate (C3), p-NP butyrate (C4) and p-NP caproate (C6)"
